Measured values as given in ChEMBL document CHEMBL3507680, “University of Dundee, Gates Library screen for HepG2 cell viability”.

Assay: Human HepG2 cell viability assay in 384 well format
Type: toxicity, cell-based
Design: dose 125 nL, time 70.5 hour; concentration not given beside the values
Settings: HepG2 cells, read-out: Inhibition

O=C(NCC(O)c1ccccc1)Nc1cccs1 (stereo not drawn)
cytotoxicity at 70.5 h: 18.8%

c1ccc(CCCN2CC[C@H](c3nnc(-c4ccccc4)o3)C2)cc1
cytotoxicity at 70.5 h: -2.93%

COc1cccc(CN2CC[C@H](c3nnc(-c4ccco4)o3)C2)c1
cytotoxicity at 70.5 h: 10.6%

CC(C)(C)c1c[nH]c([C@@H]2COCCN2C2CCOCC2)n1
cytotoxicity at 70.5 h: 12.2%

COc1ccc(CN2CCOC[C@H]2c2nc(-c3ccncc3)c[nH]2)cc1
cytotoxicity at 70.5 h: -1.1%

CC(=O)N1CCN(C(=O)C[C@@H]2C[C@@H](C(C)C)[C@H](CC#N)C=C2C)CC1
cytotoxicity at 70.5 h: 0.119%

COc1ccc(-c2cc(CC3(NCc4ccc(C)o4)COC3)no2)cc1
cytotoxicity at 70.5 h: 6.13%

Cn1ccnc1CN1C(=O)CO[C@H]2CN(Cc3ccc(F)c(F)c3)C[C@H]21
cytotoxicity at 70.5 h: 8.11%

O=C(c1cc(CC2(NCc3ccccc3)COC2)no1)N1CCCCC1
cytotoxicity at 70.5 h: -5.63%

CCCn1cnc2c1CN(S(=O)(=O)Cc1ccccc1)[C@H](C(=O)OC)C2
cytotoxicity at 70.5 h: 0.651%

c1ccc(CCCN2CC[C@H](c3nnc(-c4cccnc4)o3)C2)cc1
cytotoxicity at 70.5 h: -10.6%

CS(=O)(=O)N1C[C@@H](F)[C@@H](OCc2nc3ccccc3o2)C1
cytotoxicity at 70.5 h: 14.3%

F[C@@H]1CN(Cc2ccccc2)C[C@@H]1OCc1nc2ccccc2[nH]1
cytotoxicity at 70.5 h: 0.621%

F[C@@H]1CN(CC2CC2)C[C@@H]1OCc1nc2ccc(C(F)(F)F)cc2[nH]1
cytotoxicity at 70.5 h: 0.533%

O=C(C1CC1)N1C[C@@H](F)[C@@H](OCc2nc3cc(F)ccc3[nH]2)C1
cytotoxicity at 70.5 h: -3.11%

CC(=O)N1C[C@@H](F)[C@@H](OCc2nc3cc(C)c(C)cc3[nH]2)C1
cytotoxicity at 70.5 h: -0.883%

COC(=O)c1cccc2nc([C@H]3CCN(C4CCN(C)CC4)C3)oc12
cytotoxicity at 70.5 h: -2.72%

CC(=O)N1CCC(N2CC[C@H](c3nc4cc(C)ccc4o3)C2)CC1
cytotoxicity at 70.5 h: -1.07%

COC(=O)[C@@H]1Cc2ncn(C(C)C)c2CN1S(=O)(=O)Cc1ccccc1
cytotoxicity at 70.5 h: -6.37%

COCCOc1ccnc(-c2noc([C@@H]3CCCN3C)n2)c1
cytotoxicity at 70.5 h: -3.64%

COCc1cc(CC2(NC3CCN(C)CC3)COC2)no1
cytotoxicity at 70.5 h: 6.14%

CC(C)CN1C[C@@H]2OCC(=O)N(Cc3nccn3C)[C@@H]2C1
cytotoxicity at 70.5 h: 14%

Cc1ccc(-c2c[nH]c([C@@H]3COCCN3Cc3ncc[nH]3)n2)cc1
cytotoxicity at 70.5 h: 6.46%

Cc1ccc(-c2c[nH]c([C@@H]3COCCN3Cc3cccnc3)n2)cc1
cytotoxicity at 70.5 h: 14.4%

COCCN1C(=O)CO[C@H]2CN(S(=O)(=O)c3ccccc3)C[C@H]21
cytotoxicity at 70.5 h: -12.7%

COCC(=O)Nc1ccc(-c2noc([C@@H]3CCCN3)n2)cn1
cytotoxicity at 70.5 h: -0.348%

CC(C)(C)CN1CCC[C@H]1c1nc(-c2cncnc2N)no1
cytotoxicity at 70.5 h: -0.753%

Cc1cccc(O[C@H]2COCCN(C3CCC3)C2)n1
cytotoxicity at 70.5 h: -6.06%

CC1(C)[C@H](Cc2cc(CO)on2)C[C@@H]1NCc1ccc(CO)o1
cytotoxicity at 70.5 h: 14.7%

CC(=O)N1CCC(NC2(Cc3cc(CC(C)C)on3)COC2)CC1
cytotoxicity at 70.5 h: 3.96%

Cc1cccc(O[C@H]2COCCN(C3CCOCC3)C2)n1
cytotoxicity at 70.5 h: -9.61%

O=C(NC[C@H]1OC[C@@H](NCc2ccccc2)[C@@H]1O)Nc1ccc(F)cc1
cytotoxicity at 70.5 h: -4.13%

O=C(NC[C@H]1O[C@H](Cc2cc(-c3ccccn3)on2)CC[C@@H]1O)C1CC1
cytotoxicity at 70.5 h: -7.04%

CC(C)NC(=O)N1CCN2C(=O)N(Cc3ccc(F)cc3)C[C@H]2C1
cytotoxicity at 70.5 h: -4.66%

O=C(NC[C@H]1OC[C@@H](NC2COC2)[C@@H]1O)c1ccccc1
cytotoxicity at 70.5 h: -6.48%

O=C(NC[C@H]1OC[C@@H](NCc2ccccn2)[C@@H]1O)c1ccncc1
cytotoxicity at 70.5 h: -1.84%

CC(C)NC(=O)NC[C@H]1OC[C@@H](NCc2ccncc2)[C@@H]1O
cytotoxicity at 70.5 h: -3.41%

COc1cc(C)c2c(c1C)C[C@H]([C@H](C)C(=O)O)CC2
cytotoxicity at 70.5 h: -3.45%

O=C1N[C@@H]2CCN(C(=O)C3CCC3)[C@@H]2C(=O)N1c1ccc(F)cc1
cytotoxicity at 70.5 h: 21.8%

O=C(c1cc(CC2(NCC3CCCCC3)COC2)no1)N1CCCCC1
cytotoxicity at 70.5 h: -6.68%

CN(C)Cc1cc(CC2(NCc3ccccc3Cl)COC2)no1
cytotoxicity at 70.5 h: -2.7%

CN1CCOC[C@H]1c1nc(-c2ccccc2)c[nH]1
cytotoxicity at 70.5 h: -9.46%

O=C(NC[C@H]1OC[C@@H](NC(=O)c2ccccc2)[C@@H]1O)c1ccncc1
cytotoxicity at 70.5 h: -0.603%

COC(=O)[C@H]1CN(C(C)=O)CCN1C(C)=O
cytotoxicity at 70.5 h: -2.71%

CC(=O)N1CC[C@H]2CC(=O)N(CCc3c[nH]cn3)CC[C@H]2C1
cytotoxicity at 70.5 h: -2.6%

CCNC(=O)N1CC[C@H]2CC(=O)N(CC(N)=O)CC[C@H]2C1
cytotoxicity at 70.5 h: -1.17%

COCCOc1ncccc1-c1noc([C@@H]2CCCN2C2CCC2)n1
cytotoxicity at 70.5 h: -10.3%

COC(=O)c1cccc2nc([C@H]3CCN(Cc4ccccc4F)C3)oc12
cytotoxicity at 70.5 h: -6.68%

O=C([C@@H]1Cc2[nH]cnc2CN1Cc1cc2ccccc2o1)N1CCCC1
cytotoxicity at 70.5 h: 8.38%

O[C@@H]1C[C@@H](c2nc(-c3ccccc3)no2)N(C2CCOCC2)C1
cytotoxicity at 70.5 h: -3.47%

O=C(NC[C@H]1C[C@@H]2CCN1C[C@@H]2CN1CCOCC1)Nc1ccccc1
cytotoxicity at 70.5 h: -2.16%

O=C(NC[C@H]1OC[C@@H](NC2COC2)[C@@H]1O)c1cccs1
cytotoxicity at 70.5 h: -15.7%

Cc1cccc(O[C@H]2COCCN(Cc3sc(C)nc3C)C2)n1
cytotoxicity at 70.5 h: 10.9%

COCC(=O)N[C@H](C)c1onc(-c2ccc(F)cc2)c1C(=O)O
cytotoxicity at 70.5 h: -6.83%

C[C@@H](NC(=O)c1cccn1C)c1c(-c2ccc(Cl)cc2)noc1C(=O)O
cytotoxicity at 70.5 h: -7.66%

c1ccc(CNC[C@H]2Cn3ccnc3CO2)cc1
cytotoxicity at 70.5 h: 4.33%

CCC(=O)NCc1cc(C2CC2)n(C2CCCC2)n1
cytotoxicity at 70.5 h: 13.9%

O=C(CN1C(=O)CCC1=O)N1CCC(S(=O)(=O)Cc2ccco2)CC1
cytotoxicity at 70.5 h: -3.03%

Cn1cnnc1S(=O)(=O)C1CCN(C(=O)c2cccs2)CC1
cytotoxicity at 70.5 h: -10.5%

Cn1cnnc1S(=O)(=O)C1CCN(C(=O)c2ccsc2)CC1
cytotoxicity at 70.5 h: -9.56%

Cc1ccc(S(=O)(=O)N2CCC(S(=O)(=O)c3nncn3C)CC2)cc1C
cytotoxicity at 70.5 h: -6.93%

CNC(=O)CS(=O)(=O)C1CCN(S(=O)(=O)c2cccc(Cl)c2C)CC1
cytotoxicity at 70.5 h: -9.92%

CC(=O)Nc1ccc(CC(=O)N2CC(S(=O)(=O)C3CCCCC3)C2)cc1
cytotoxicity at 70.5 h: -3.63%

COC1CCN(c2ccc(NC(=O)Cn3cccn3)cc2)CC1
cytotoxicity at 70.5 h: -8%

COC1CCN(c2ccc(NC(=O)Cn3cccc3)cc2)CC1
cytotoxicity at 70.5 h: -11%

O=C(Cc1ccccc1Cl)Nc1cnn(C2CCOC2)c1 (stereo not drawn)
cytotoxicity at 70.5 h: -14%

O=C(Nc1cnn(C2CCOCC2)c1)c1ccc2c(c1)OCO2
cytotoxicity at 70.5 h: -16%

O=C(Cc1cccs1)Nc1cnn(C2CCOCC2)c1
cytotoxicity at 70.5 h: -12.8%

O=S(=O)(Nc1cnn(C2CCOCC2)c1)c1ccc(Br)cc1
cytotoxicity at 70.5 h: -5.21%

COC(C)(CNS(=O)(=O)c1cn(C)cn1)c1ccccc1F (stereo not drawn)
cytotoxicity at 70.5 h: 9.94%

CCC(CNC(=O)C1CCC1)(OC)c1ccccc1 (stereo not drawn)
cytotoxicity at 70.5 h: -1.73%

CCNC(=O)NCC(CC)(OC)c1ccccc1 (stereo not drawn)
cytotoxicity at 70.5 h: -5.55%

O=C(NC1CC1)C1CCCN(c2cc(-n3cncn3)ncn2)C1 (stereo not drawn)
cytotoxicity at 70.5 h: 13.5%

O=C(CSC1CCCC1)N1CCN(c2ccc(-n3cncn3)nn2)CC1
cytotoxicity at 70.5 h: -2.51%

COC(=O)c1cc(OC)c(OC)cc1N(C)S(C)(=O)=O
cytotoxicity at 70.5 h: 41.7%

OCc1cnc(Nc2ccccc2)nc1
cytotoxicity at 70.5 h: 10.1%

COC(=O)C1CCCN1Cc1ccco1 (stereo not drawn)
cytotoxicity at 70.5 h: -8.41%

CNCc1ccc(Oc2cncc(C)n2)cc1
cytotoxicity at 70.5 h: -12.9%

N#Cc1ccccc1Cn1cncn1
cytotoxicity at 70.5 h: 9.79%

c1coc(CN2CCC3(CC2)CC(N2CCCC2)CO3)c1 (stereo not drawn)
cytotoxicity at 70.5 h: 33.2%

Cc1cc(C(=O)N[C@H]2CC[C@@]3(CCC(=O)N3C)CC2)no1
cytotoxicity at 70.5 h: -9.34%

Cc1ccsc1C(=O)N1CC2CC1(C(=O)NCc1ccco1)C2
cytotoxicity at 70.5 h: 13.9%

Cc1ccsc1C(=O)N1CC2CC1(C(=O)NCC1CC1)C2
cytotoxicity at 70.5 h: -16.8%

CN(C)C(=O)N1CCC2(CCC(C(=O)N3CCCC3)O2)CC1 (stereo not drawn)
cytotoxicity at 70.5 h: -16.3%

CC(=O)N1CCC2(CC1)CN(C(C)=O)CC21CCNC1=O (stereo not drawn)
cytotoxicity at 70.5 h: 16.2%

CCN1C(=O)CCC12CCN(S(=O)(=O)c1ccccc1)CC2
cytotoxicity at 70.5 h: -4.14%

O=C1Nc2ccccc2C1C1CCN(C(=O)C2CC2)CC1 (stereo not drawn)
cytotoxicity at 70.5 h: -6.49%

COc1ccc(CN2C[C@@H]3CN(S(=O)(=O)C4CC4)C[C@@H]3C2=O)cc1
cytotoxicity at 70.5 h: -9.53%

COCCN1C(=O)CC[C@]12CC[C@@H](NC(=O)c1cc(C)on1)CC2
cytotoxicity at 70.5 h: -5.63%

CN(C)C(=O)N1CCC(C2C(=O)Nc3ccccc32)CC1 (stereo not drawn)
cytotoxicity at 70.5 h: -10.4%

CCn1nc(CC(C)C)cc1C(=O)NCCn1cccc1
cytotoxicity at 70.5 h: -2.38%

CC(C)Oc1cc(N2C[C@@H](C)O[C@@H](C)C2)nc(N)n1
cytotoxicity at 70.5 h: -14.6%

CN(Cc1nccs1)c1nc(-c2ccccn2)nc2c1CCNCC2
cytotoxicity at 70.5 h: -4.75%

CCn1cc(CN2CCCn3nc(CNC(=O)C4CCC4)cc3C2)cn1
cytotoxicity at 70.5 h: -9%

CCn1ccnc1CN1CCC(CCC(=O)Nc2ccccc2Cl)CC1
cytotoxicity at 70.5 h: 11.7%

CCn1cc(CN2CCCn3nc(CCC(=O)NCCO)cc3C2)cn1
cytotoxicity at 70.5 h: -3.88%

CCS(=O)(=O)N1CCC(c2nnc(Cn3cccn3)n2C2CC2)CC1
cytotoxicity at 70.5 h: -0.619%

O=C(C1CCCCC1)N1CC2(CCNCC2)C1
cytotoxicity at 70.5 h: 1.58%

CCOC1COC2(CCN(Cc3ccco3)CC2)C1 (stereo not drawn)
cytotoxicity at 70.5 h: 18.2%

CC(C)NC(=O)N1CCC2(CC1)C(=O)NCCN2Cc1ccccc1
cytotoxicity at 70.5 h: -7.72%

CC(C)C1COC2(CCN(Cc3ccco3)CC2)C1 (stereo not drawn)
cytotoxicity at 70.5 h: -7.19%

CC(=O)N1C[C@H]2CCCN(Cc3ccc(C)o3)[C@H]2C1
cytotoxicity at 70.5 h: -10.5%

COc1ccc(C[C@H]2CN(C3CCOCC3)CC[C@@H]2OCC2CC2)cc1
cytotoxicity at 70.5 h: -3.98%

CN(C[C@@H]1CCC[C@@H]2CN(c3ncccn3)C[C@@H]21)C1CC1
cytotoxicity at 70.5 h: -1.63%

CCN1CCN(C)C2(CCN(Cc3cccc(C)n3)CC2)C1=O
cytotoxicity at 70.5 h: -9.88%

Cc1ccc(CN2CCC3(CC2)C(=O)N(CCO)CCN3C)o1
cytotoxicity at 70.5 h: -3.64%

COc1ccc(CN2C[C@@H]3CN(Cc4ccncc4)C[C@@H]3C2=O)cc1
cytotoxicity at 70.5 h: -8.45%

COc1ccc(CN2C[C@H]3CN(Cc4ccncc4)C(=O)[C@H]3C2)cc1
cytotoxicity at 70.5 h: -7.43%
